In ChEMBL document CHEMBL1124283, “1,4-Dihydropyridine antagonist activities at the calcium channel: a quantitative structure-activity relationship approach” (J Med Chem, 1988):

Assays:
[1] = Compound was tested for its antagonist activity against calcium channel; type: functional, Homo sapiens
Cavia porcellus = species: Cavia porcellus; experiment: Effective concentration required to produce mechanical response determined in muscle strips of guinea pig; type: functional; details: Muscle tissue, read-out: Log 1/EC50 (converted)

Row | Structure (SMILES) | Log 1/IC50 [1] | EC50 (Cavia porcellus) [µM]
1 | COC(=O)C1=C(C)N=C(C)/C(=C(\O)OC)C1c1ccc(F)cc1 (stereo not drawn) | 7.46 | 0.129
2 | COC(=O)C1=C(C)N=C(C)/C(=C(\O)OC)C1c1ccccc1I (stereo not drawn) | 10.8 | 0.0468
3 | COC(=O)C1=C(C)N=C(C)/C(=C(\O)OC)C1c1cccc([N+](C)(C)C)c1 (stereo not drawn) | < 5 | 50.1
4 | COC(=O)C1=C(C)N=C(C)/C(=C(\O)OC)C1c1cccc(C(F)(F)F)c1 (stereo not drawn) | – | 0.0741
5 | COC(=O)C1=C(C)NC(C)=C(C(=O)OC)C1c1ccccc1[N+](=O)[O-] [NIFEDIPINE] | 9.08 | 0.00513
6 | COC(=O)C1=C(C)N=C(C)/C(=C(\O)OC)C1c1ccc(I)cc1 (stereo not drawn) | – | 22.9
7 | COC(=O)C1=C(C)N=C(C)/C(=C(\O)OC)C1c1cccc(C)c1 (stereo not drawn) | 7.28 | 0.11
8 | COC(=O)C1=C(C)N=C(C)/C(=C(\O)OC)C1c1ccc(C#N)cc1 (stereo not drawn) | – | 3.47
9 | COC(=O)C1=C(C)N=C(C)/C(=C(\O)OC)C1c1ccccc1C#N (stereo not drawn) | 9.18 | 0.0158
10 | COC(=O)C1=C(C)N=C(C)/C(=C(\O)OC)C1c1ccccc1C (stereo not drawn) | 8.71 | 0.00603
11 | COC(=O)C1=C(C)N=C(C)/C(=C(\O)OC)C1c1cccc(C#N)c1 (stereo not drawn) | 8.68 | 0.0347
12 | C=Cc1ccccc1C1C(C(=O)OC)=C(C)N=C(C)/C1=C(\O)OC (stereo not drawn) | – | 0.00447
13 | COC(=O)C1=C(C)N=C(C)/C(=C(\O)OC)C1c1ccccc1F (stereo not drawn) | 8.44 | 0.0427
14 | CCOc1ccccc1C1C(C(=O)OC)=C(C)N=C(C)/C1=C(\O)OC (stereo not drawn) | – | 0.11
15 | COC(=O)C1=C(C)N=C(C)/C(=C(\O)OC)C1c1cc(C)ccc1C (stereo not drawn) | – | 0.1
16 | COC(=O)C1=C(C)N=C(C)/C(=C(/O)OC)C1c1cccc(Cl)c1 (stereo not drawn) | 9.3 | 0.0158
17 | COC(=O)C1=C(C)N=C(C)/C(=C(\O)OC)C1c1ccccc1OC (stereo not drawn) | 7.87 | 0.0575
18 | COC(=O)C1=C(C)NC(C)=C(C(=O)OC)C1c1ccccc1 | 7.85 | 0.0282
19 | COC(=O)C1=C(C)N=C(C)/C(=C(\O)OC)C1c1cccc(N(C)C)c1 (stereo not drawn) | – | 0.891
20 | COC(=O)C1=C(C)N=C(C)/C(=C(\O)OC)C1c1c(F)c(F)c(F)c(F)c1F (stereo not drawn) | 10.37 | 0.00437
21 | COC(=O)C1=C(C)N=C(C)/C(=C(\O)OC)C1c1cccc(N)c1 (stereo not drawn) | – | 2
22 | COC(=O)C1=C(C)N=C(C)/C(=C(\O)OC)C1c1ccc(Cl)cc1 (stereo not drawn) | 6.22 | 8.13

Row | Structure (SMILES) | Log 1/IC50 [1] | EC50 (Cavia porcellus) [µM]
23 | COC(=O)C1=C(C)N=C(C)/C(=C(\O)OC)C1c1c(Cl)cccc1Cl (stereo not drawn) | – | 0.00191
24 | COC(=O)C1=C(C)N=C(C)/C(=C(/O)OC)C1c1c(F)cccc1Cl (stereo not drawn) | 8.37 | 0.00759
25 | COC(=O)C1=C(C)N=C(C)/C(=C(\O)OC)C1c1cccc(OC(=O)c2ccccc2)c1 (stereo not drawn) | – | 6.31
26 | COC(=O)C1=C(C)N=C(C)/C(=C(\O)OC)C1c1cccc(O)c1 (stereo not drawn) | – | 1
27 | COC(=O)C1=C(C)N=C(C)/C(=C(\O)OC)C1c1cc([N+](=O)[O-])ccc1Cl (stereo not drawn) | – | 0.0302
28 | COC(=O)C1=C(C)N=C(C)/C(=C(\O)OC)C1c1cc(OC)c(OC)cc1OC (stereo not drawn) | – | 1000
29 | COC(=O)C1=C(C)N=C(C)/C(=C(\O)OC)C1c1ccccc1Br (stereo not drawn) | 10.49 | 0.00759
30 | COC(=O)C1=C(C)N=C(C)/C(=C(\O)OC)C1c1cccc(Br)c1 (stereo not drawn) | – | 0.00129
31 | CCc1ccccc1C1C(C(=O)OC)=C(C)N=C(C)/C1=C(\O)OC (stereo not drawn) | – | 0.00646
32 | COC(=O)C1=C(C)N=C(C)/C(=C(\O)OC)C1c1cccc(I)c1 (stereo not drawn) | – | 0.0417
33 | COC(=O)C1=C(C)N=C(C)/C(=C(\O)OC)C1c1cccc(OC(C)=O)c1 (stereo not drawn) | – | 6.03
34 | COC(=O)C1=C(C)N=C(C)/C(=C(\O)OC)C1c1ccccc1Cl (stereo not drawn) | 9.78 | 0.00219
35 | COC(=O)C1=C(C)N=C(C)/C(=C(\O)OC)C1c1cccc(N=[N+]=[N-])c1 (stereo not drawn) | 8.67 | –
36 | COC(=O)C1=C(C)N=C(C)/C(=C(\O)OC)C1c1cccc(OC)c1 (stereo not drawn) | 7.27 | 0.191
37 | COC(=O)C1=C(C)N=C(C)/C(=C(\O)OC)C1c1cc([N+](=O)[O-])ccc1O (stereo not drawn) | – | 0.1
38 | COC(=O)C1=C(C)N=C(C)/C(=C(\O)OC)C1c1cccc(Cl)c1Cl (stereo not drawn) | – | 0.0191
39 | COC(=O)C1=C(C)N=C(C)/C(=C(\O)OC)C1c1cc(Cl)cc(Cl)c1 (stereo not drawn) | – | 0.0933
40 | COC(=O)C1=C(C)NC(C)=C(C(=O)OC)C1c1ccc(N(C)C)cc1 | – | 100
41 | COC(=O)C1=C(C)N=C(C)/C(=C(\O)OC)C1c1cccc(F)c1 (stereo not drawn) | 8.49 | 0.0209
42 | COC(=O)C1=C(C)N=C(C)/C(=C(\O)OC)C1c1ccc(C)cc1 (stereo not drawn) | 7.18 | –
43 | COC(=O)C1=C(C)N=C(C)/C(=C(\O)OC)C1c1ccccc1C(F)(F)F (stereo not drawn) | – | 0.00151
44 | COC(=O)C1=C(C)N=C(C)/C(=C(\O)OC)C1c1ccccc1N (stereo not drawn) | – | 39.8
